# Earlier results, collected in US20110158922A1, “Skin Care Compositions and Method of Use Thereof” (priority 2008, published 2011).
# No end group written: not given here. *: point of attachment. Palmitoyl = CCCCCCCCCCCCCCCC(=O)*
# How the values were obtained:
# [1] = system: skin cell energy production; details: topical application
# [2] = system: T-T dimmers in DNA, DNA repair, cell viability following UV exposure; details: in vitro
# synthesis of GAGs = details: in-vitro study
# collagen glycation = details: in vitro
compound,measurement,setting,value
CN(CC(=O)O)C(=N)N [creatine],skin cell energy production,[1],substantial improvement in skin cell energy production
ethylbisiminomethylguaiacol manganese chloride,DNA repair,[2],stimulates DNA repair
same,cell viability following UV exposure,[2],increasing cell viability following UV exposure
same,formation of T-T dimmers in DNA,[2]; UV exposure,reduces the formation of T-T dimmers in DNA
"Palmitoyl-Lysysl-Threonyl-Threonyl-Lysyl-Serine (Palmitoyl-KTTKS) [Palmitoyl pentapeptide-4, peptide derived from a collagen precursor]",synthesis of GAGs,synthesis of GAGs,increase synthesis of GAGs
"COc1ccc([C@@H]2CC(=O)c3c(O)cc(O[C@@H]4O[C@H](CO[C@@H]5O[C@@H](C)[C@H](O)[C@@H](O)[C@H]5O)[C@@H](O)[C@H](O)[C@H]4O)cc3O2)cc1O [Hesperidin flavonoids, hesperidin]",collagen glycation,collagen glycation,inhibit collagen glycation in vitro
